Test results published in patent US20060122153A1, “Antineoplastic ether lipid compounds with modifications at the sn-2 carbon” (priority 2003, published 2006).

Key:
Format in all cases: cell-based, human
MCF-7 = test: NCI growth inhibition screen, breast panel; parameters: key to Performance as compared to ET-18-O—CH3: = means equivalent activity; + means that it appears to be significantly better (i.e., by ˜2x); < means it appears to be less active than ET18OCH3 (˜2x); a combination like =/+ or </+ means that activity is dependent upon the isomer; a combination like =/+ or </+ means that activity is dependent upon the isomer; details: for Performance as compared to ET-18-O—CH3: MCF-7, Breast, from GI50s; for activity compared to ET-18-OCH3 (in words): MCF-7 cell line, NCI screen
Description: (§1) Candidates deemed suitable for in vivo testing were then synthesized in large scale quantities and some of this material was sent to the NCI's Developmental Therapeutics Program for a battery of growth inhibitory studies against various human tumor cell lines (60 cell lines, 9 different panels). The remainder of the material was used to assess in vivo efficacy using murine tumor models. Additionally, studies were conducted on the lead candidates to discern mechanism of action with particular emphasis on these agents apoptotic ability as measured by caspase 3 activity. The details (materials and methods) for these various assays are described further in the following discussion.
(§2) Ten compounds were also sent to NCI's Drug Discovery Program for screening against numerous human tumor cell lines (9 panels total: renal ovarian, colon, CNS, non-small cell lung, leukemia, breast, melanoma, and prostate). The data are shown in FIGS. 2a-i which also include data regarding D- and L-ET-18-OCH3 (listed as L-EL and D-EL in the figures). Upon examining the data, one is struck by how 1R and 1a′S standout in comparison to the other compounds, especially for the renal, ovarian, colon, and CNS panels.

MALME-3M = test: NCI growth inhibition screen, melanoma panel; parameters: key to Performance as compared to ET-18-O—CH3: = means equivalent activity; + means that it appears to be significantly better (i.e., by ˜2x); < means it appears to be less active than ET18OCH3 (˜2x); a combination like =/+ or </+ means that activity is dependent upon the isomer; a combination like =/+ or </+ means that activity is dependent upon the isomer; details: for Performance as compared to ET-18-O—CH3: MALME-3M, Melanoma, from GI50s; for activity compared to ET-18-OCH3 (in words): melanoma MALME-3M cell line, NCI screen
Description: as §1, §2

SN12C = test: NCI growth inhibition screen, renal panel; parameters: key: = means equivalent activity; + means that it appears to be significantly better (i.e., by ˜2x); < means it appears to be less active than ET18OCH3 (˜2x); a combination like =/+ or </+ means that activity is dependent upon the isomer; a combination like =/+ or </+ means that activity is dependent upon the isomer; details: from GI50s
Description: as §1, §2

RXF 393 = test: NCI growth inhibition screen, renal panel; parameters: key: = means equivalent activity; + means that it appears to be significantly better (i.e., by ˜2x); < means it appears to be less active than ET18OCH3 (˜2x); a combination like =/+ or </+ means that activity is dependent upon the isomer; a combination like =/+ or </+ means that activity is dependent upon the isomer; details: RXF 393, Renal; from GI50s
Description: as §1, §2

TK-10 = test: NCI growth inhibition screen, renal panel; parameters: key: = means equivalent activity; + means that it appears to be significantly better (i.e., by ˜2x); < means it appears to be less active than ET18OCH3 (˜2x); a combination like =/+ or </+ means that activity is dependent upon the isomer; a combination like =/+ or </+ means that activity is dependent upon the isomer; details: TK-10, Renal; from GI50s
Description: as §1, §2

CAK-1 = test: NCI growth inhibition screen, renal panel; parameters: key: = means equivalent activity; + means that it appears to be significantly better (i.e., by ˜2x); < means it appears to be less active than ET18OCH3 (˜2x); a combination like =/+ or </+ means that activity is dependent upon the isomer; a combination like =/+ or </+ means that activity is dependent upon the isomer; details: CAK-1, Renal; from GI50s
Description: as §1, §2

A498 = test: NCI growth inhibition screen, renal panel; parameters: key: = means equivalent activity; + means that it appears to be significantly better (i.e., by ˜2x); < means it appears to be less active than ET18OCH3 (˜2x); a combination like =/+ or </+ means that activity is dependent upon the isomer; a combination like =/+ or </+ means that activity is dependent upon the isomer; details: from GI50s
Description: as §1, §2

ACHIN = test: NCI growth inhibition screen, renal panel; parameters: key: = means equivalent activity; + means that it appears to be significantly better (i.e., by ˜2x); < means it appears to be less active than ET18OCH3 (˜2x); a combination like =/+ or </+ means that activity is dependent upon the isomer; a combination like =/+ or </+ means that activity is dependent upon the isomer; details: from GI50s
Description: as §1, §2

786-0 = test: NCI growth inhibition screen, renal panel; parameters: key: = means equivalent activity; + means that it appears to be significantly better (i.e., by ˜2x); < means it appears to be less active than ET18OCH3 (˜2x); a combination like =/+ or </+ means that activity is dependent upon the isomer; a combination like =/+ or </+ means that activity is dependent upon the isomer; details: 786-0, Renal; from GI50s
Description: as §1, §2

Row | Compound | Performance as compared to ET-18-O—CH3 (MCF-7) | activity compared to ET-18-OCH3 (in words) (MCF-7) | Performance as compared to ET-18-O—CH3 (MALME-3M) | activity compared to ET-18-OCH3 (in words) (MALME-3M) | Performance as compared to ET-18-O—CH3 (SN12C) | Performance as compared to ET-18-O—CH3 (RXF 393) | Performance as compared to ET-18-O—CH3 (TK-10) | Performance as compared to ET-18-O—CH3 (CAK-1) | Performance as compared to ET-18-O—CH3 (A498) | Performance as compared to ET-18-O—CH3 (ACHIN) | Performance as compared to ET-18-O—CH3 (786-0)
1 | CCCCCCCCCCCCCCCCCCOC[C@@H](COP(=O)([O-])OCC[N+](C)(C)C)OS(C)(=O)=O [1a′S] | 128 | more active than ET-18-OCH3 | 0 | ET-18-OCH3 was more active | 0 | 32 | 0 | 0 | 0 | 0 | 0
2 | CCCCCCCCCCCCCCCCCCOCC(COP(=O)([O-])OCC[N+](C)(C)C)OS(C)(=O)=O (stereo not shown) [Compound 1aR] | + | more active than ET-18-OCH3 | < | ET-18-OCH3 was more active | = | = | = | = | = | = | =
